Starred links: 1 amine or outer side, 2 acyl side, 3 side chain; linkers in the order of their positions; H or OH if unused. Non-standard residues stand in square brackets, D forms with d. Residues, ends and D or L forms follow the SMILES beside them. dPro(4R-(4-pyridylmethyl)) = O=C(O)[C@H]1C[C@@H](Cc2ccncc2)CN1; Trp(βS-Me,4-F) = C[C@@H](c1c[nH]c2cccc(F)c12)[C@H](N)C(=O)O; Bip(4'-CONH2) = NC(=O)c1ccc(-c2ccc(C[C@H](N)C(=O)O)cc2)cc1; Bip(4'-COOH) = N[C@@H](Cc1ccc(-c2ccc(C(=O)O)cc2)cc1)C(=O)O; Ala(1-bicyclo(1.1.1)pentyl) = N[C@@H](CC12CC(C1)C2)C(=O)O; dPro(3S-(4-F-Bn)) = O=C(O)[C@@H]1NCC[C@@H]1Cc1ccc(F)cc1; X4 = O=C([C@H]1[C@@H](Cc2ccncc2)CCN1[*:1])[*:2]; Ala(pyrimidin-5-yl) = N[C@@H](Cc1cncnc1)C(=O)O; Phe(4-CONH2) = NC(=O)c1ccc(C[C@H](N)C(=O)O)cc1; Phe(4-COOH) = N[C@@H](Cc1ccc(C(=O)O)cc1)C(=O)O; Pro(cis-4-F) = O=C(O)[C@@H]1C[C@H](F)CN1; Ala(4-THP) = N[C@@H](CC1CCOCC1)C(=O)O; AEF = NCCOc1ccc(C[C@H](N)C(=O)O)cc1; Dap(CONH2) = NC(=O)NC[C@H](N)C(=O)O; hTyr = N[C@@H](CCc1ccc(O)cc1)C(=O)O; d(αMeD) = C[C@@](N)(CC(=O)O)C(=O)O; h4Pal = N[C@@H](CCc1ccncc1)C(=O)O; hPhe = N[C@@H](CCc1ccccc1)C(=O)O; 4Pal = N[C@@H](Cc1ccncc1)C(=O)O; d(αMeS) = C[C@@](N)(CO)C(=O)O; NMeDab = CN[C@@H](CCN)C(=O)O; Dab = NCC[C@H](N)C(=O)O; Aib = CC(C)(N)C(=O)O
biological target: T1, IL-1β (Homo sapiens, UniProt P01584); assay: IL-6 assay in MRC5 cells: inhibition of IL-1β induced IL-6 secretion (AlphaLISA); assay type: cell-based; conditions: inhibition of IL-1β induced IL-6 secretion in MRC5 cells; read-out: MRC5 IC50
T1 construct: purchased BioLegend 579404
Outline: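 Compound was pre-incubated 1 h at ambient temperature with recombinant human IL-1β at 2λ EC80 before adding human lung fibroblast MRC5 cells (3000/well) in EMEM with 0.025% BSA. After overnight culture at 37 °C, 5% CO2, secreted IL-6 in conditioned medium was measured by AlphaLISA; IC50 from 4-parameter logistic fits.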

T1 sequence (P01584 117-269): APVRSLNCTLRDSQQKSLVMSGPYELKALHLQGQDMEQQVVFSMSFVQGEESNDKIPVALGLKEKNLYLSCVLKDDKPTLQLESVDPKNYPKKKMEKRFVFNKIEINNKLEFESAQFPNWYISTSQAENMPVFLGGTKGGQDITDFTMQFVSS

Row | IC50 | Compound
1 | 0.01 nM | C[C@@H](c1c[nH]c2cccc(F)c12)[C@@H]1NC(=O)[C@@H]2C[C@H](F)CN2C(=O)CNC(=O)[C@H](Cc2ccc(C(=O)O)cc2)NC(=O)[C@H](Cc2ccncc2)NC(=O)[C@H](Cc2ccc(-c3ccc(C(N)=O)cc3)cc2)NC(=O)[C@H]2C[C@@H](Cc3ccncc3)CN2C(=O)CNC(=O)[C@H](CCN)NC(=O)[C@H](CCC(N)=O)NC(=O)[C@H](CC2CCOCC2)NC(=O)[C@@](C)(CO)NC(=O)[C@H](Cc2c[nH]c3ccccc23)NC(=O)[C@H](CO)NC(=O)C(C)(C)NC1=O [Example 215] (cyclo([Bip(4'-CONH2)][4Pal][Phe(4-COOH)]G[Pro(cis-4-F)][Trp(βS-Me,4-F)][Aib]SW[d(αMeS)][Ala(4-THP)]Q[Dab]G[dPro(4R-(4-pyridylmethyl))]))
2 | 0.008 nM | C[C@@H](c1c[nH]c2cccc(F)c12)[C@@H]1NC(=O)[C@@H]2C[C@H](F)CN2C(=O)CNC(=O)[C@H](Cc2ccc(C(=O)O)cc2)NC(=O)[C@H](CC23CC(C2)C3)NC(=O)[C@H](Cc2ccc(-c3ccc(C(N)=O)cc3)cc2)NC(=O)[C@H]2[C@@H](Cc3ccc(F)cc3)CCN2C(=O)CNC(=O)[C@H](CCN)NC(=O)[C@H](CCC(N)=O)NC(=O)[C@H](CC2CCOCC2)NC(=O)[C@@](C)(CO)NC(=O)[C@H](Cc2c[nH]c3ccccc23)NC(=O)[C@H](CO)NC(=O)C(C)(C)NC1=O [Example 216] (cyclo([Bip(4'-CONH2)][Ala(1-bicyclo(1.1.1)pentyl)][Phe(4-COOH)]G[Pro(cis-4-F)][Trp(βS-Me,4-F)][Aib]SW[d(αMeS)][Ala(4-THP)]Q[Dab]G[dPro(3S-(4-F-Bn))]))
3 | 0.036 nM | CC(=O)NCCOc1ccc(C[C@@H]2NC(=O)[C@H]3C[C@@H](Cc4ccncc4)CN3C(=O)CNC(=O)[C@H](CCN)N(C)C(=O)[C@H](CCC(N)=O)NC(=O)[C@H](Cc3cncnc3)NC(=O)C(C)(C)NC(=O)[C@H](Cc3c[nH]c4ccccc34)NC(=O)[C@H](CO)NC(=O)C(C)(C)NC(=O)[C@H]([C@@H](C)c3c[nH]c4cccc(F)c34)NC(=O)[C@@H]3C[C@H](F)CN3C(=O)CNC(=O)[C@H](Cc3ccc(C(N)=O)cc3)NC(=O)[C@H](Cc3ccncc3)NC2=O)cc1 [Example 218] (cyclo([4Pal][Phe(4-CONH2)]G[Pro(cis-4-F)][Trp(βS-Me,4-F)][Aib]SW[Aib][Ala(pyrimidin-5-yl)]Q[NMeDab]G[dPro(4R-(4-pyridylmethyl))][AEF](Ac)))
4 | 0.018 nM | C[C@@H](c1c[nH]c2cccc(F)c12)[C@@H]1NC(=O)[C@@H]2C[C@H](F)CN2C(=O)CNC(=O)[C@H](Cc2ccc(C(=O)O)cc2)NC(=O)[C@H](Cc2ccncc2)NC(=O)[C@H](Cc2ccc(-c3ccc(C(=O)O)cc3)cc2)NC(=O)[C@H]2[C@@H](Cc3ccncc3)CCN2C(=O)CNC(=O)[C@H](CCN)NC(=O)[C@H](CCC(N)=O)NC(=O)[C@H](CCc2ccc(O)cc2)NC(=O)[C@@](C)(CC(=O)O)NC(=O)[C@H](Cc2c[nH]c3ccccc23)NC(=O)[C@H](CO)NC(=O)C(C)(C)NC1=O [Example 219] (cyclo([Bip(4'-COOH)][4Pal][Phe(4-COOH)]G[Pro(cis-4-F)][Trp(βS-Me,4-F)][Aib]SW[d(αMeD)][hTyr]Q[Dab]G[X4]))
5 | 0.039 nM | C[C@@H](c1c[nH]c2cccc(F)c12)[C@@H]1NC(=O)[C@@H]2C[C@H](F)CN2C(=O)CNC(=O)[C@H](Cc2ccc(C(=O)O)cc2)NC(=O)[C@H](Cc2ccncc2)NC(=O)[C@H](Cc2ccc(-c3ccc(C(=O)O)cc3)cc2)NC(=O)[C@H]2[C@@H](Cc3ccncc3)CCN2C(=O)CNC(=O)[C@H](CCN)NC(=O)[C@H](CCC(N)=O)NC(=O)[C@H](CCc2ccc(O)cc2)NC(=O)C(C)(C)NC(=O)[C@H](Cc2c[nH]c3ccccc23)NC(=O)[C@H](CO)NC(=O)C(C)(C)NC1=O [Example 220] (cyclo([Bip(4'-COOH)][4Pal][Phe(4-COOH)]G[Pro(cis-4-F)][Trp(βS-Me,4-F)][Aib]SW[Aib][hTyr]Q[Dab]G[X4]))
6 | 0.02 nM | C[C@@H](c1c[nH]c2cccc(F)c12)[C@@H]1NC(=O)[C@@H]2C[C@H](F)CN2C(=O)CNC(=O)[C@H](Cc2ccc(C(=O)O)cc2)NC(=O)[C@H](Cc2ccncc2)NC(=O)[C@H](Cc2ccc(-c3ccc(C(=O)O)cc3)cc2)NC(=O)[C@H]2[C@@H](Cc3ccncc3)CCN2C(=O)CNC(=O)[C@H](CCN)NC(=O)[C@H](CCC(N)=O)NC(=O)[C@H](CCc2ccccc2)NC(=O)[C@@](C)(CC(=O)O)NC(=O)[C@H](Cc2c[nH]c3ccccc23)NC(=O)[C@H](CO)NC(=O)C(C)(C)NC1=O [Example 221] (cyclo([Bip(4'-COOH)][4Pal][Phe(4-COOH)]G[Pro(cis-4-F)][Trp(βS-Me,4-F)][Aib]SW[d(αMeD)][hPhe]Q[Dab]G[X4]))
7 | 0.02 nM | C[C@@H](c1c[nH]c2cccc(F)c12)[C@@H]1NC(=O)[C@@H]2C[C@H](F)CN2C(=O)CNC(=O)[C@H](Cc2ccc(C(=O)O)cc2)NC(=O)[C@H](Cc2ccncc2)NC(=O)[C@H](Cc2ccc(-c3ccc(C(=O)O)cc3)cc2)NC(=O)[C@H]2[C@@H](Cc3ccncc3)CCN2C(=O)CNC(=O)[C@H](CCN)NC(=O)[C@H](CCC(N)=O)NC(=O)[C@H](CCc2ccncc2)NC(=O)[C@@](C)(CC(=O)O)NC(=O)[C@H](Cc2c[nH]c3ccccc23)NC(=O)[C@H](CO)NC(=O)C(C)(C)NC1=O [Example 222] (cyclo([Bip(4'-COOH)][4Pal][Phe(4-COOH)]G[Pro(cis-4-F)][Trp(βS-Me,4-F)][Aib]SW[d(αMeD)][h4Pal]Q[Dab]G[X4]))
8 | 0.027 nM | C[C@@H](c1c[nH]c2cccc(F)c12)[C@@H]1NC(=O)[C@@H]2C[C@H](F)CN2C(=O)CNC(=O)[C@H](Cc2ccc(C(=O)O)cc2)NC(=O)[C@H](Cc2ccncc2)NC(=O)[C@H](Cc2ccc(-c3ccc(C(=O)O)cc3)cc2)NC(=O)[C@H]2[C@@H](Cc3ccncc3)CCN2C(=O)CNC(=O)[C@H](CNC(N)=O)NC(=O)[C@H](CCC(N)=O)NC(=O)[C@H](CCc2ccncc2)NC(=O)[C@@](C)(CC(=O)O)NC(=O)[C@H](Cc2c[nH]c3ccccc23)NC(=O)[C@H](CO)NC(=O)C(C)(C)NC1=O [Example 223] (cyclo([Bip(4'-COOH)][4Pal][Phe(4-COOH)]G[Pro(cis-4-F)][Trp(βS-Me,4-F)][Aib]SW[d(αMeD)][h4Pal]Q[Dap(CONH2)]G[X4]))
9 | 0.03 nM | COC[C@@]1(C)NC(=O)[C@H](Cc2c[nH]c3ccccc23)NC(=O)[C@H](CO)NC(=O)C(C)(C)NC(=O)[C@H]([C@@H](C)c2c[nH]c3cccc(F)c23)NC(=O)[C@@H]2C[C@H](F)CN2C(=O)CNC(=O)[C@H](Cc2ccc(C(=O)O)cc2)NC(=O)[C@H](Cc2ccncc2)NC(=O)[C@H](Cc2ccc(-c3ccc(C(=O)O)cc3)cc2)NC(=O)[C@H]2[C@@H](Cc3ccncc3)CCN2C(=O)CNC(=O)[C@H](CCN)NC(=O)[C@H](CCC(N)=O)NC(=O)[C@H](Cc2cncnc2)NC1=O [Example 224] (cyclo([Bip(4'-COOH)][4Pal][Phe(4-COOH)]G[Pro(cis-4-F)][Trp(βS-Me,4-F)][Aib]SW[d(αMeS)](Me)[Ala(pyrimidin-5-yl)]Q[Dab]G[X4]))

Reference: patent publication US20260242419A1, “A CYCLIC PEPTIDE FOR TRAPPING INTERLEUKIN-1 BETA” (Merck Sharp & Dohme LLC, priority 2023, published 2026)
